{
  "source": "ChEMBL document CHEMBL4229475",
  "about": "“Synthesis of novel imidazopyridines and their biological evaluation as potent anticancer agents: A promising candidate for glioblastoma” (Bioorg Med Chem Lett, 2018)",
  "key": {"LN-405 [1]": {"test_system": "LN-405", "assay": "Cell cycle arrest in human LN405 cells assessed as accumulation at G0/G1 phase at IC50 after 72 hrs by propidium iodide staining-based flow cytometric method relative to control", "assay_type": "functional"}, "[2]": {"assay": "Cytotoxicity against human WS1 cells assessed as decrease in cell viability after 96 hrs by MTT assay", "assay_type": "cell-based", "conditions": "WS1, 96 h"}, "LN-405 [3]": {"test_system": "LN-405", "assay": "Cytotoxicity against human LN405 cells assessed as cell viability at 100 uM after 96 hrs by MTT assay relative to control", "assay_type": "functional", "conditions": "LN-405, 96 h, read-out: Activity"}, "LN-405 [4]": {"test_system": "LN-405", "assay": "Cell cycle arrest in human LN405 cells assessed as decrease in cell levels at S phase at IC50 after 72 hrs by propidium iodide staining-based flow cytometric method", "assay_type": "functional"}, "LN-405 [5]": {"test_system": "LN-405", "assay": "Cytotoxicity against human LN405 cells assessed as decrease in cell viability after 96 hrs by MTT assay", "assay_type": "functional, cell-based", "conditions": "LN-405, 96 h"}, "LN-405 [6]": {"test_system": "LN-405", "assay": "Induction of DNA damage in human LN405 cells assessed as cell with damage DNA at IC50 after 72 hrs by COMET assay (reference value: 0.7%)", "assay_type": "functional"}, "LN-405 [7]": {"test_system": "LN-405", "assay": "Cytotoxicity against human LN405 cells assessed as decrease in cell viability at 100 uM after 96 hrs by MTT assay", "assay_type": "functional, cell-based"}},
  "note": "Activity calls are given as the source filed them. No cut-off for these calls is given here.",
  "data": [
    {"smiles": "CC1CCN(c2cc(-c3ccccc3)c3nc(-c4ccccc4)cn3c2)CC1", "values": [
      {"measurement": "Activity", "setting": "LN-405 [1]", "result": 99.2, "unit": "%"},
      {"measurement": "IC50", "setting": "[2]", "result": 480, "unit": "µM"},
      {"measurement": "viability at 100 µM", "setting": "LN-405 [3]", "result": 6, "unit": "%"},
      {"measurement": "Activity", "setting": "LN-405 [4]", "result": "Active"},
      {"measurement": "IC50", "setting": "LN-405 [5]", "result": 10, "unit": "µM"},
      {"measurement": "Activity", "setting": "LN-405 [6]", "result": 14, "unit": "%"}
    ]},
    {"smiles": "CC1CCN(c2cc(-c3cccs3)c3nc(-c4cccs4)cn3c2)CC1", "values": [
      {"measurement": "Activity", "setting": "LN-405 [7]", "result": "inactive"}
    ]},
    {"smiles": "CC1CCN(c2cc(-c3ccc(Br)cc3)c3nc(-c4ccc(Br)cc4)cn3c2)CC1", "values": [
      {"measurement": "Activity", "setting": "LN-405 [7]", "result": "inactive"}
    ]},
    {"smiles": "COc1ccc(-c2cn3cc(N4CCC(C)CC4)cc(-c4ccc(OC)cc4)c3n2)cc1", "values": [
      {"measurement": "viability at 100 µM", "setting": "LN-405 [3]", "result": 80, "unit": "%"}
    ]},
    {"smiles": "CC1CCN(c2cc(-c3ccc4ccccc4c3)c3nc(-c4ccc5ccccc5c4)cn3c2)CC1", "values": [
      {"measurement": "Activity", "setting": "LN-405 [7]", "result": "inactive"}
    ]},
    {"smiles": "CC1CCN(c2cc(-c3ccc(-c4ccccc4)cc3)c3nc(-c4ccc(-c5ccccc5)cc4)cn3c2)CC1", "values": [
      {"measurement": "Activity", "setting": "LN-405 [7]", "result": "inactive"}
    ]},
    {"smiles": "CC1CCN(c2cc(-c3ccc(F)cc3)c3nc(-c4ccc(F)cc4)cn3c2)CC1", "values": [
      {"measurement": "Activity", "setting": "LN-405 [1]", "result": 98.2, "unit": "%"},
      {"measurement": "IC50", "setting": "[2]", "result": 844, "unit": "µM"},
      {"measurement": "viability at 100 µM", "setting": "LN-405 [3]", "result": 32, "unit": "%"},
      {"measurement": "Activity", "setting": "LN-405 [4]", "result": "Active"},
      {"measurement": "IC50", "setting": "LN-405 [5]", "result": 75, "unit": "µM"},
      {"measurement": "Activity", "setting": "LN-405 [6]", "result": 0.9, "unit": "%"}
    ]},
    {"smiles": "CC1CCN(c2cc(-c3ccc(Br)s3)c3nc(-c4ccc(Br)s4)cn3c2)CC1", "values": [
      {"measurement": "Activity", "setting": "LN-405 [7]", "result": "inactive"}
    ]}
  ]
}
